19 compounds from patent publication US8063221B2, “Aminoquinolones as GSK-3 inhibitors” (Kyorin Pharmaceutical Co., Ltd., priority 2006, dated 2011) can be followed below.

≈ marks a conversion by molar mass, not a printed value. Read-outs that look alike come from different tables or passages of the source.

For assay [1], the target named is T1, recombinant full-length human GSK3β (Homo sapiens, UniProt P49841).
T1 construct: recombinant full-length human GSK3β (Upstate); purchased Upstate
Put plainly: Luciferase-coupled cell-free GSK3β kinase assay. The format is biochemical. On the procedure: For compounds in Tables 1 and 2, IC50 (μM) for GSK3β enzyme in cell free assay is provided as follows:
Luciferase-Coupled Protein Kinase Assays
All coupled-luciferase assays are performed by using a brief incubation with firefly luciferase (Promega) after completion of the kinase assay. KinaseGlo Plus is used for reading kinase reactions with ATP>10 μM, KinaseGlo for ATP <10 μM. The assay volume in a 384-well plate for the kinase reaction is 30 microliters.
10-25 ng of recombinant full-length human GSK3β (Upstate) is incubated in the presence or absence of compound at varying concentrations for 1 hour at 30 degrees Celsius in 20 mM MOPS, pH 7.0, 10 mM magnesium acetate, 0.2 mM EDTA, 2 mM EGTA, 30 mM magnesium chloride, 62.5 μM phospho-glycogen synthase peptide-2, 5 μM ATP, 10 mM β-glycerol phosphate, 1 mM sodium orthovanadate and 1 mM dithiothreitol. Proceed to KinaseGlo luciferase reaction (see below).
Following the completion of the kinase reaction an equal volume of KinaseGlo or KinaseGlo Plus luciferase reagent (Promega) is added and the luminescence read using a luminescence plate reader within 5-10 minutes. Compound activity is expressed as % inhibition relative to maximal inhibition observed at the maximal dose and IC50 values then calculated using curve fitting software (GraphPad Prizm).

A further assay has as its system E. coli, ATCC8739. Kind of assay: Antibacterial activity (MIC), E. coli. The following applies: Escherichia coli. The format is cell-based. The source says:
(§1) As used herein, a minimum inhibitory concentration (MIC) for bacterial growth assay is the lowest level of a compound needed to cause an inhibition to bacterial growth in culture medium. In certain embodiments, the antibacterial activity of compounds herein, measured as MIC.
(§2) In certain embodiments, GSK3 inhibitors provided herein are substantially free of antibacterial activity or having very low antibacterial activity. The antibacterial activity can be measured by methods known in the art by estimating a minimum inhibitory concentration (MIC) for test compounds. A MIC is the lowest level of a compound needed to cause an inhibition to bacterial growth in a culture medium. […] (Clinical and Laboratory Standards Institute. Methods for Dilution Antimicrobial Susceptibility Tests for Bacteria That Grow Aerobically; Approved Standard-Sixth Edition: CLSI document […]. CLSI, Wayne, Pa. (2003))
(§3) Antibacterial activity for E. coli, ATCC8739 andS. aureus Smith expressed as MIC (μM) is provided as follows: […]

Another assay deals with S. aureus Smith. Kind of assay: Antibacterial activity (MIC), S. aureus. To be noted: Staphylococcus aureus. The format is cell-based.
Description: as §1, §2, §3

Setting [2] is: ATCC8739, Table 2, E. coli ATCC8739, read-out: Antimicrobial MIC [μM] E. Coli.
Setting [3] is: Table 2, S. aureus Smith, read-out: Antimicrobial MIC [μM] S. aureus.
The mark [4] stands for this setting: ATCC8739, Table 1, E. coli ATCC8739, read-out: Antibacterial MIC (μM) E.Coli.
Setting [5] is: Table 1, read-out: Antibacterial MIC (μM) S. aureus Smith.

T1 sequence (P49841 whole entry): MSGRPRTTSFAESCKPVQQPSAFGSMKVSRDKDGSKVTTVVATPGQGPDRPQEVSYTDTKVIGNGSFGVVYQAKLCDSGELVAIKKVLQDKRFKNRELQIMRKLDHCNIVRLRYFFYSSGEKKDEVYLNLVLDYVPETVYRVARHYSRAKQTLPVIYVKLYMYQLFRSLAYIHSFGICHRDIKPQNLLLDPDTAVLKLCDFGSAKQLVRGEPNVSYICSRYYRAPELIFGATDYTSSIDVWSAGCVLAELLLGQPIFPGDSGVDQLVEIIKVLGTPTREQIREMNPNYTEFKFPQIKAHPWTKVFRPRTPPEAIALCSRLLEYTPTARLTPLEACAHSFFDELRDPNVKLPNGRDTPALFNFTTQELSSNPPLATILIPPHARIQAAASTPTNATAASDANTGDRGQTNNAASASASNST

Consider `COc1c(NCCNc2ccccn2)c(F)c(N)c2c(=O)c(C#N)cn(C3CC3)c12` [Example 142], for which the IC50 in assay [1] (Table 2) is < 100 nM. Besides, the MIC with E. coli, ATCC8739 (setting [2]) was > 50 µM; with S. aureus Smith (setting [3]), > 50 µM.

In the case of `COc1c(NCCCc2ccccc2)c(F)c(N)c2c(=O)ccn(C3CC3)c12` [compound 1], in assay [1] (Table 2), the IC50 lay within 100 to 500 nM. The MIC in the assay on E. coli, ATCC8739 (setting [2]) was 10 to 50 µM (≈ 3.81 to 19.1 µg/mL); in the assay on S. aureus Smith (setting [3]), 10 to 50 µM (≈ 3.81 to 19.1 µg/mL).

On to `Nc1c(F)c(NCCc2ccccc2)c(F)c2c1c(=O)c(C(=O)O)cn2C1CC1` [compound 1], for which the half-inhibitory concentration (IC50) in assay [1] (Table 1) was in the range of 100 to 500 nM. In addition, the MIC was 0.5 to 10 µM (≈ 0.2 to 3.99 µg/mL) in the assay on E. coli, ATCC8739 (setting [4]) and < 0.5 µM with S. aureus Smith (setting [5]).

Consider `COc1c(NCCCn2ccnc2)c(F)c(N)c2c(=O)ccn(C3CC3)c12` [compound 2], for which, in assay [1] (Table 2), the IC50 is 100 to 500 nM. Besides, the MIC with E. coli, ATCC8739 (setting [2]) is > 50 µM; in the assay with S. aureus Smith (setting [3]), > 50 µM.

Turning to `CC1COc2c(NCCc3ccncc3)c(F)c(N)c3c(=O)c(C(=O)O)cn1c23` (stereo not drawn) [compound 3], in assay [1] (Table 2), the half-maximal inhibitory concentration (IC50) lay in the range of 100 to 500 nM. Also, the MIC with E. coli, ATCC8739 (setting [2]) lay within 0.5 to 10 µM (≈ 0.199 to 3.98 µg/mL); in the assay on S. aureus Smith (setting [3]) it was 0.5 to 10 µM (≈ 0.199 to 3.98 µg/mL).

Turning to `Nc1c(F)c(NCCc2ccncc2)c(F)c2c1c(=O)c(C(=O)O)cn2C1CC1` [compound 3], in assay [1] (Table 1), the half-maximal inhibitory concentration (IC50) lay in the range of 100 to 500 nM. Besides, the MIC is 0.5 to 10 µM (≈ 0.2 to 4 µg/mL) in the assay on E. coli, ATCC8739 (setting [4]) and < 0.5 µM with S. aureus Smith (setting [5]).

On to `CC(C)OCCCNc1c(F)c(N)c2c(=O)c(C(=O)O)cn3c2c1OCC3C` (stereo not drawn) [compound 4], for which the IC50 in assay [1] (Table 2) fell in the range of 100 to 500 nM. The MIC is > 50 µM in the assay with E. coli, ATCC8739 (setting [2]) and 0.5 to 10 µM (≈ 0.197 to 3.93 µg/mL) in the assay on S. aureus Smith (setting [3]).

On to `CC1COc2c(NCCCN3CCCC3=O)c(F)c(N)c3c(=O)c(C(=O)O)cn1c23` (stereo not drawn) [compound 5], for which the IC50 in assay [1] (Table 2) is < 100 nM. Further, the MIC with E. coli, ATCC8739 (setting [2]) was > 50 µM; in the assay on S. aureus Smith (setting [3]) it was 0.5 to 10 µM (≈ 0.209 to 4.18 µg/mL).

Regarding `Nc1c(F)c(NCCc2ccc(F)cc2)c(F)c2c1c(=O)c(C(=O)O)cn2C1CC1` [compound 5], the half-inhibitory concentration (IC50) in assay [1] (Table 1) was in the range of 100 to 500 nM. For the same compound, the MIC with E. coli, ATCC8739 (setting [4]) was 0.5 to 10 µM (≈ 0.209 to 4.17 µg/mL); with S. aureus Smith (setting [5]), < 0.5 µM.

Consider `CC1COc2c(NCCCn3cnc4ccccc43)c(F)c(N)c3c(=O)c(C(=O)O)cn1c23` (stereo not drawn) [compound 6], for which the half-maximal inhibitory concentration (IC50) in assay [1] (Table 2) was < 100 nM. For the same compound, the minimal inhibitory concentration (MIC) in the assay on E. coli, ATCC8739 (setting [2]) is 10 to 50 µM (≈ 4.51 to 22.6 µg/mL); in the assay on S. aureus Smith (setting [3]), 0.5 to 10 µM (≈ 0.226 to 4.51 µg/mL).

In the case of `Nc1c(F)c(NCCCc2ccccc2)c(F)c2c1c(=O)c(C(=O)O)cn2C1CC1` [compound 6], the IC50 in assay [1] (Table 1) is < 100 nM. Also, the MIC in the assay with E. coli, ATCC8739 (setting [4]) was 10 to 50 µM (≈ 4.13 to 20.7 µg/mL); with S. aureus Smith (setting [5]), 0.5 to 10 µM (≈ 0.207 to 4.13 µg/mL).

On to `Nc1c(F)c(NCCNc2ccccn2)c(F)c2c1c(=O)c(C(=O)O)cn2C1CC1` [compound 7], for which, in assay [1] (Table 1), the IC50 fell in the range of 100 to 500 nM. In addition, the MIC with E. coli, ATCC8739 (setting [4]) lay in the range of 0.5 to 10 µM (≈ 0.208 to 4.15 µg/mL); with S. aureus Smith (setting [5]), 0.5 to 10 µM (≈ 0.208 to 4.15 µg/mL).

Turning to `Nc1c(F)c(NCCCc2ccccc2)c2c3c1c(=O)c(C(=O)O)cn3CCO2` [compound 8], the IC50 in assay [1] (Table 2) is > 1000 nM. Besides, the MIC lay within 10 to 50 µM (≈ 3.97 to 19.9 µg/mL) with E. coli, ATCC8739 (setting [2]) and 10 to 50 µM (≈ 3.97 to 19.9 µg/mL) with S. aureus Smith (setting [3]).

In the case of `Nc1c(F)c(NCCCn2ccnc2)c2c3c1c(=O)c(C(=O)O)cn3CCO2` [compound 9], the half-inhibitory concentration (IC50) in assay [1] (Table 2) lay in the range of 500 to 1000 nM. For the same compound, the minimal inhibitory concentration (MIC) with E. coli, ATCC8739 (setting [2]) is 10 to 50 µM (≈ 3.87 to 19.4 µg/mL); with S. aureus Smith (setting [3]), > 50 µM.

`Nc1c(F)c(NCCc2ccc(F)cc2)c(F)c2c1c(=O)ccn2C1CC1` [compound 10]: the 50% inhibitory concentration (IC50) in assay [1] (Table 1) was 500 to 1000 nM. For the same compound, the MIC lay within 10 to 50 µM (≈ 3.73 to 18.7 µg/mL) with E. coli, ATCC8739 (ATCC8739, read-out: Antibacterial MIC (μM) E.Coli) and 10 to 50 µM (≈ 3.73 to 18.7 µg/mL) with S. aureus Smith (read-out: Antibacterial MIC (μM) S. aureus Smith).

As to `Nc1c(F)c(NCCc2ccncc2)c(F)c2c1c(=O)ccn2C1CC1` [compound 11], the IC50 in assay [1] (Table 1) lay within 100 to 500 nM. Besides, the MIC in the assay with E. coli, ATCC8739 (setting [4]) was > 50 µM; in the assay with S. aureus Smith (setting [5]) it was > 50 µM.

Turning to `CC1COc2c(NCCNc3cccc(C(F)(F)F)n3)c(F)c(N)c3c(=O)c(C(=O)O)cn1c23` (stereo not drawn) [compound 12], in assay [1] (Table 2), the half-maximal inhibitory concentration (IC50) was < 100 nM. Moreover, the MIC with E. coli, ATCC8739 (setting [2]) fell in the range of 10 to 50 µM (≈ 4.81 to 24.1 µg/mL); with S. aureus Smith (setting [3]), 0.5 to 10 µM (≈ 0.241 to 4.81 µg/mL).

Take `Nc1ccc(CCNc2c(F)c(N)c3c(=O)ccn(C4CC4)c3c2F)cc1` [compound 12]: the 50% inhibitory concentration (IC50) in assay [1] (Table 1) was 500 to 1000 nM. In addition, the minimum inhibitory concentration (MIC) with E. coli, ATCC8739 (setting [4]) is > 50 µM; with S. aureus Smith (setting [5]), 10 to 50 µM (≈ 3.7 to 18.5 µg/mL).

`CC1COc2c(NCCNc3nc(F)c(F)cc3F)c(F)c(N)c3c(=O)c(C(=O)O)cn1c23` (stereo not drawn) [compound 13]: the concentration for half-maximal inhibition (IC50) in assay [1] (Table 2) was < 100 nM. The MIC with E. coli, ATCC8739 (setting [2]) lay in the range of 10 to 50 µM (≈ 4.67 to 23.4 µg/mL); with S. aureus Smith (setting [3]), 0.5 to 10 µM (≈ 0.234 to 4.67 µg/mL).
